Patent US10433553B2, “Salts of N-(1,3,4-oxadiazol-2-yl) aryl carboxylic acid amides and the use of same as herbicides” (BAYER CROPSCIENCE AKTIENGESELLSCHAFT, priority 2015, dated 2019)

What was measured:
Type in all cases: in vivo
Conditions in all cases: dosage 5 g/ha, assessed visually after about 3 weeks
ALOMY = assay: Post-emergence herbicidal action against harmful plants
Experimental: (§1) 2. Post-Emergence Herbicidal Action Against Harmful Plants
(§2) Seeds of monocotyledonous and dicotyledonous weed and crop plants are laid out in sandy loam in wood-fiber pots, covered with soil and cultivated in a greenhouse under good growth conditions. 2 to 3 weeks after sowing, the test plants are treated at the one-leaf stage.

VERPE = assay: as above
Experimental: as §1, §2

TRZAS = assay: Post-emergence damage to crop plants
Experimental: as §1, §2

SMILES | Activity against ALOMY (ALOMY) [%] | Activity against VERPE (VERPE) [%] | Damage to TRZAS (TRZAS) [%]
Cc1nnc([N-]C(=O)c2ccc(C(F)(F)F)c(S(C)(=O)=O)c2C)o1.[Na+] [drawing 51] | 80 | 100 | 0
Cc1nnc([N-]C(=O)c2ccc(C(F)(F)F)c([S+](C)[O-])c2Cl)o1.[Na+] (centres unmarked) | – | 70 | 0
